These are literature values, as cited in patent US7459569B2, “Method of forming iron hydroxypyrone compounds” (Vitra Pharmaceuticals Limited, priority 2002, dated 2008).

The structures appear in SMILES notation.

For this data set the following is noted: given on an empty stomach.

Regarding `O=S(=O)([O-])[O-].[Fe+2]` [ferrous sulphate], the absorption rate is 30%.
